This is an account of results in publication PMC8994274, “A proteolysis-targeting chimera molecule selectively degrades ENL and inhibits malignant gene expression and tumor growth” (Journal of Hematology & Oncology, 2022).

The test system of one data set is Hela cells. Description: Antiproliferation assay, Hela. The note with it: Homo sapiens, read-out: Antiproliferative activity, EC50, Hela.
The subject of another data set is Panc1 cells. Description: Antiproliferation assay, Panc1. The note with it: Homo sapiens, PANC-1, 168 h, read-out: Antiproliferative activity, EC50, Panc1.
In the next data set the test system is U266 cells. In words: Antiproliferation assay (XTT), U266. The note with it: Homo sapiens, U-266, 168 h, read-out: Antiproliferative activity, EC50, U266. For orientation: Formazan colour is commonly taken as a measure of viable cells.
The test system of a further data set is MV4;11 cells. In words: Antiproliferation assay (XTT), MV4;11. The note with it: Homo sapiens, MV4-11, 168 h, read-out: Antiproliferative activity, EC50, MV4;11.
A further data set relates to Molm-13 cells. In words: Antiproliferation assay (XTT), Molm-13. The note with it: for EC50: Homo sapiens, MOLM-13, 168 h, read-out: Antiproliferative activity, EC50, Molm13.
A further data set relates to Kasumi-1 cells. Description: Antiproliferation assay (XTT), Kasumi-1. The note with it: Homo sapiens, Kasumi 1, 168 h, read-out: Antiproliferative activity, EC50, Kasumi-1.
The subject of the next data set is RPMI-8226 cells. In words: Antiproliferation assay (XTT), RPMI-8226. The note with it: Homo sapiens, RPMI-8226, 168 h, read-out: Antiproliferative activity, EC50, RPMI-8226.
Data set [1] addresses T1, ENL (Homo sapiens, UniProt Q03111).
T1 sequence (Q03111 1-559): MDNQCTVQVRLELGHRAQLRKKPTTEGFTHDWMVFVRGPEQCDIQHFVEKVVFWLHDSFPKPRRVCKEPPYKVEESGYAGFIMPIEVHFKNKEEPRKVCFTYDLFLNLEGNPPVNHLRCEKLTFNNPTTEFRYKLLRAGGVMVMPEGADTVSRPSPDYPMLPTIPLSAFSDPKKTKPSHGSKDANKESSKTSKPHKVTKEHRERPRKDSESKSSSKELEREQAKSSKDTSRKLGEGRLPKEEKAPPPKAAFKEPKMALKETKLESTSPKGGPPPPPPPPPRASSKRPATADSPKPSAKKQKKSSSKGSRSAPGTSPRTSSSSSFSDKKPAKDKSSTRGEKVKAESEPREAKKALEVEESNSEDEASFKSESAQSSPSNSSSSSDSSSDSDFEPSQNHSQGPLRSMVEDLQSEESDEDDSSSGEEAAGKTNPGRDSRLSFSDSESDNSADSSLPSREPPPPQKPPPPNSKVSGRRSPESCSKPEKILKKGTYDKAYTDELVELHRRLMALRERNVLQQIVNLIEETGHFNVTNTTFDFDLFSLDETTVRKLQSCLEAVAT
Description: Rescue of compound 1-mediated ENL degradation in MV4;11 cells. The class given is cell-based. Also on record: endogenous in cells; host or cells: MV4;11. The note with it: 2 h pre-treatment, then co-treatment with 1 (500 nM) for 24 h. The protocol: (§1) 3 × 10^6 cells/well were treated with increasing concentrations of a compound for 1 day, and whole proteins were extracted. Equal amounts of proteins were separated on SDS-PAGE and transferred to PVDF membranes. The blots were probed with primary antibodies, followed by anti-rabbit IgG (Thermo Scientific) secondary antibodies.

Data set [2] concerns the target T1, ENL. In words: ENL in nucleus and cytoplasm of MV4;11 cells (Western blot). Further details: endogenous in cells; host or cells: MV4;11. The data set is classed as cell-based. The note with it: 4 days, compound 1 at 500 nM. The protocol:
Upon treatment of MV4;11 cells with these compounds for 4 days, cytoplasmic and nuclear proteins were separated and subjected to SDS-PAGE/Western blot.
as §1
(In western blotting, separated proteins are transferred to a membrane and probed.)

Data set [3] has as its system blood and solid tumor cells. Description: Antiproliferation assay, ranges given over several cell lines. The class given is cell-based.
Description: (§2) Proliferation inhibition assays for suspension blood cancer cells were performed using an XTT assay kit (Biotium), following our previous methods [22]. EC50 values were determined using Prism 5 and from at least three independent experiments.
In data set [4] the target is T1, ENL. Description: ENL degradation in MV4;11 cells (Western blot). The data set is classed as cell-based. Also on record: endogenous in cells; host or cells: MV4;11. The note with it: for Dmax: MV4-11, MV4;11 cells, read-out: Dmax (maximal degradation) of ENL; for Dmax / DC50: 24 h; for DC50: read-out: DC50 (concentration at which a protein is reduced by 50%) of ENL. The protocol: We next tested whether these compounds degrade ENL and AF9 in MV4;11 leukemia cells with the MLL1-AF4 oncogene. Upon compound treatment for 24 h, the cells were washed, lysed, and the lysates subjected to SDS-PAGE (sodium dodecyl sulfate–polyacrylamide gel electrophoresis) followed by detection with Western blot.
3 × 10^6 cells/well were treated with increasing concentrations of a compound for 1 day, and whole proteins were extracted. Equal amounts of proteins were separated on SDS-PAGE and transferred to PVDF membranes. The blots were probed with primary antibodies, followed by anti-rabbit IgG (Thermo Scientific) secondary antibodies. The primary antibodies against ENL (Cell signaling #14893), AF9 (Novusbio #NB100-1565), DOT1L (Cell signaling #77087), AFF4 (Abcam #ab103586), Cyclin T1 (Cell signaling #81464), H3K79me2 (Cell signaling #5427), H3K79me1 (Cell signaling #9398), Histone H3 (Cell signaling #4499), FLAG (Sigma-Aldrich #F1804), β-Actin (Cell signaling #4970) were used in this study.

A further data set concerns the target T2, ENL YEATS (Homo sapiens, UniProt Q03111).
T2 sequence (Q03111 1-138): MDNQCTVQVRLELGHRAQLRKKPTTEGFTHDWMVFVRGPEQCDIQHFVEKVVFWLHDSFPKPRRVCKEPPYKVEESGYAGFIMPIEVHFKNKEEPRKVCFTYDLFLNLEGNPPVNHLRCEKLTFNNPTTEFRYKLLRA

The target of a further data set is T3, AF9 YEATS (Homo sapiens, UniProt P42568).
T3 sequence (P42568 1-138 limits assumed): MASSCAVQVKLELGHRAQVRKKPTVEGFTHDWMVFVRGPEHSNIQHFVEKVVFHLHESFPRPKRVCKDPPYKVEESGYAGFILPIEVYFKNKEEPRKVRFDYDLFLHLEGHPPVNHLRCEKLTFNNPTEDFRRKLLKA
In words: ALPHA assay, inhibition of the AF9 YEATS-H3K27ac interaction.

The structures appear in SMILES notation. Where two headings read alike, the source gives them in different places.

Description for AF9 YEATS: (§3) AlphaScreen binding assay was developed using Perkin-Elmer AlphaScreen Histidine (Nickel Chelate) Detection Kit, following a reported protocol [39]. Data were imported into Prism (version 5.0), and IC50 values from 3 independent experiments with standard deviation were obtained by using a standard dose–response curve fitting.
Description for ENL YEATS: cDNA for human ENL YEATS domain (1–138) was synthesized (by Genscript) and cloned into pET-28a vector.
as §3
Description for Kasumi-1 cells: as §2
Description for Molm-13 cells: as §2
Description for RPMI-8226 cells: as §2
Description for U266 cells: as §2

In general, EC50 refers to the concentration at which the effect is half-maximal. Regarding `O=C1CCC(N2C(=O)c3ccccc3C2=O)C(=O)N1` (stereo not shown) [thalidomide, reference compound], the EC50 in the data set on Hela cells (168 h) is greater than 50 µM; in the data set on Panc1 cells, greater than 50 µM; in the data set with U266 cells, greater than 50 µM; in the data set with MV4;11 cells, greater than 50000 nM; in the data set on Molm-13 cells, greater than 50000 nM; with Kasumi-1 cells, greater than 50 µM. The half-maximal effective concentration (EC50) in the data set with RPMI-8226 cells is greater than 50 µM. The “Effect on compound 1-mediated ENL degradation” value (“Effect” for short) on ENL [1] is reported as “dose-dependently inhibit 1-mediated ENL degradation”. At ENL [2], the “ENL level in the nucleus” value is listed as “did not reduce”.

As for `C[C@H]1CCCN1Cc1nc2cc(NC(=O)c3ccc4c(cnn4CCCCNC(=O)CC45CC6CC(CC(C6)C4)C5)c3)ccc2[nH]1` [Compound 4], the “Cytotoxic action over time” value in data set [3] (cancerous cells) was “killing cancerous cells non-selectively within 3 days”. Also, the EC50 is 1000 to 3800 nM in [3] (non-selective activities, read-out: EC50 for blood and solid tumor cells (range over cell lines)); 3.8 ± 1.2 µM with Hela cells (72 h); 980 ± 40 nM with Molm-13 cells; 1.4 ± 0.46 µM in the data set with RPMI-8226 cells. Moreover, at ENL [4] (MV4;11 cells, even at 5 μM), the ENL reduction entry was “did not reduce ENL”.

Broadly, the Dmax is the largest share of the target that was removed. For orientation: IC50 means the midpoint of a concentration-inhibition curve. High values mean a need for much substance, low ones inhibition by little substance. `C[C@H]1CCCN1Cc1nc2cc(NC(=O)c3ccc4c(cnn4CCCCNc4cccc5c4C(=O)N(C4CCC(=O)NC4=O)C5=O)c3)ccc2[nH]1` (stereo partly shown) [Compound 3]: the EC50 with Hela cells (168 h) was greater than 50 µM; in the data set with Panc1 cells, greater than 50 µM; in the data set with U266 cells it was 2.9 ± 1.8 µM; in the data set with MV4;11 cells it was 1200 ± 50 nM; in the data set on Molm-13 cells, 2100 ± 30 nM; with Kasumi-1 cells, 50 µM. Moreover, the EC50 in the data set on RPMI-8226 cells stood at 19 ± 3.8 µM. Besides, the Dmax at ENL [4] was 89%. Further, the DC50 on ENL [4] (MV4;11 cells) worked out at 72 nM. Moreover, the IC50 turned out to be 610 nM at ENL YEATS and 58 ± 20 nM at AF9 YEATS.

As to `C[C@H]1CCCN1Cc1nc2cc(NC(=O)c3ccc4c(cnn4C)c3)ccc2[nH]1` [SGC-iMLLT, reference compound], the EC50 in the data set on Hela cells (168 h) is greater than 50 µM; in the data set on Panc1 cells, greater than 50 µM; in the data set on U266 cells it was greater than 50 µM; in the data set with MV4;11 cells it was greater than 50000 nM; in the data set on Molm-13 cells, 17000 ± 1100 nM; in the data set on Kasumi-1 cells it was greater than 50 µM. Also, the EC50 with RPMI-8226 cells was greater than 50 µM. In the data set on Molm-13 cells (7-day incubation), the “Antiproliferative activity, EC50, Molm13” value is “weak activity”. For the same compound, on ENL [1], the “Effect” value was “dose-dependently inhibit 1-mediated ENL degradation”. For the same compound, the “ENL level in the nucleus” value on ENL [2] is recorded as “no reduction or even an increase”. On AF9 YEATS, this compound returned a half-inhibitory concentration (IC50) of 11 ± 0.6 nM.

Take `CC(C)C[C@H](NC(=O)[C@H](Cc1ccccc1)NC(=O)c1cnccn1)B(O)O` [bortezomib]: the “Effect” value on ENL [1] was “dose-dependently inhibit 1-mediated ENL degradation”.

`C[C@H]1CCCN1Cc1nc2cc(NC(=O)c3ccc4c(cnn4CCCCCCNc4cccc5c4C(=O)N(C4CCC(=O)NC4=O)C5=O)c3)ccc2[nH]1` (stereo partly shown) [Compound 2]: the EC50 in the data set on Hela cells (168 h) was greater than 50 µM; in the data set with Panc1 cells, greater than 50 µM; with U266 cells, 17 µM; with MV4;11 cells it was 1600 ± 10 nM; in the data set with Molm-13 cells it was 490 ± 430 nM; with Kasumi-1 cells it was 19 ± 3.4 µM. In the data set with RPMI-8226 cells, the EC50 came to 6 ± 0.9 µM. Besides, on ENL [4], the Dmax was roughly 68%. Further, the DC50 on ENL [4] (MV4;11 cells) is roughly 50 nM. For the same compound, the results for the IC50 on ENL YEATS and on AF9 YEATS were 100 nM and 317 ± 58 nM, respectively.
